# Reference: EPA's ToxValDB 9.5
# Where “and” joins values, the source holds several entries; their conditions need not be identical. Equal entries are not always repeated.
# Columns and labels:
# Oryctolagus sp. = conditions: duration: 15 days, oral, F, New Zealand
# Monkey = conditions: oral, Cynomolgus
# Mus musculus = conditions: oral
# [1] = reproduction developmental, Body Weight: 21% decreased mean maternal body weight gain on GDs 7-21 / no effect on food consumption
# [2] = chronic, duration: 26 weeks, M/F, Endocrine: Increased TSH and decreased total T3 + Hepatic: 47-55% increased absolute liver weight / 50-60% decreased serum cholesterol / …
# [3] = developmental, duration: 17 days, F, B6C3F1, Developmental: 42.5% reduced NK cell activity in male pups at 8 weeks of age
# [4] = reproduction developmental, duration: 17 days, F, CD1, Endocrine: Decreased total T4 on GD 6
# [5] = short-term, duration: 21 days, M, CD1, Body Weight: ~15% reduced body weight + Reproductive: ~17% reduced serum testosterone, ~38% reduced epididymal sperm count
# [6] = short-term, duration: 28 days, M, B6C3F1, Immunotoxicological: Suppressed response to sRBC (~60%)
# [7] = subchronic, duration: 60 days, M, Immunotoxicological: Impaired response to sRBC
smiles,measurement,setting,value
O=S(=O)([O-])C(F)(F)C(F)(F)C(F)(F)C(F)(F)C(F)(F)C(F)(F)C(F)(F)C(F)(F)F.[K+] [Potassium perfluorooctanesulfonate],NOAEL,"Oryctolagus sp.; developmental, Developmental: Decreased fetal body weight / 10% at […] and 24% at 3.75 mg/kg/day / 10/22 does aborted between GD 22 and 28 at 3.75 mg/kg/…",1 mg/kg-day
same,LOAEL,Oryctolagus sp.; [1],1 mg/kg-day
same,NOAEL,Oryctolagus sp.; [1],0.1 mg/kg-day
same,NOAEL,"Monkey; chronic, duration: 26 weeks, F",0.75 mg/kg-day
same,LOAEL,Monkey; [2],0.75 mg/kg-day
same,NOAEL,Monkey; [2],0.15 mg/kg-day
same,NOAEL,"Monkey; chronic, duration: 26 weeks, M/F, Neurological: No histological alterations",0.75 mg/kg-day
same,NOAEL,"Monkey; chronic, duration: 26 weeks, M, Body Weight: 13.5% reduction in final body weight",0.15 mg/kg-day
same,LOAEL,"Monkey; chronic, duration: 26 weeks, M, Body Weight: 13.5% reduction in final body weight + Reproductive: Significant decrease in serum estradiol on days 62 (48%), 91 (42%), and …",0.75 mg/kg-day
same,NOAEL,"Monkey; chronic, duration: 315 days, M",13.3 mg/kg-day
same,LOAEL,"Monkey; chronic, duration: 315 days, M, Endocrine: Decreased serum T4 / values still within normal range + Hepatic: Decrease in HDL cholesterol / values still within normal range",13.3 mg/kg-day
same,NOAEL,"Monkey; short-term, duration: 4 weeks, M/F, Immunotoxicological: No histological alteration + Reproductive: No histological alterations",2 mg/kg-day
same,LOAEL,"Mus musculus; developmental, duration: 4 weeks, M, CD1, Developmental: Impaired retention of the task in the water maze test",3 mg/kg-day
same,LOAEL,"Mus musculus; developmental, duration: 1 days, M, CD1, Developmental: 24% decreased total spontaneous activity at 2 months of age / no significant alteration at 4 months",0.75 mg/kg-day
same,LOAEL,"Mus musculus; developmental, duration: 4 days, F, Developmental: 31% reduced percentage of live pups per litter on PND 15",4.5 mg/kg-day
same,LOAEL,"Mus musculus; developmental, duration: 5 days, F, ICR, Developmental: 6.1% increased cleft palate and 12.7% reduced body weight in fetuses",50 mg/kg-day
same,NOAEL,"Mus musculus; developmental, duration: 7 days, F, CD1",6 mg/kg-day
same,LOAEL,"Mus musculus; developmental, duration: 7 days, F, CD1, Developmental: Decreased distance traveled in open field test at 3 months of age",6 mg/kg-day
same,LOAEL,"Mus musculus; developmental, duration: 7 days, F, CD1, Developmental: Reduced body weight of pups on PNDs 4 and 8",6 mg/kg-day
same,LOAEL,Mus musculus; [3],1 mg/kg-day
same,NOAEL,Mus musculus; [3],0.1 mg/kg-day
same,NOAEL,"Mus musculus; developmental, duration: 17 days, F, CD1, Developmental: Increased incidences of sternal defects at ?5 mg/kg/day / reduced percentage of live fetuses (9%) at 20 mg/kg/day",1 mg/kg-day
same,NOAEL,"Mus musculus; developmental, duration: 17 days, F, CD1, Developmental: Peroxisome proliferation in fetal liver at ?5 mg/kg/day",5 mg/kg-day
same,LOAEL,"Mus musculus; developmental, duration: 17 days, F, ICR, Body Weight: 35% reduced maternal body weight + Developmental: 89% increased cleft palate, 25% reduced body weight in fetuses",20 mg/kg-day
same,LOAEL,"Mus musculus; developmental, duration: 18 days, F, ICR, Developmental: GDs 0-18: decreased survival (55.2%) at 10 mg/kg/day on PND 4, decreased neonatal BW, intracranial blood vessel dilatation, …",10 mg/kg-day
same,NOAEL,"Mus musculus; developmental, duration: 18 days, F, ICR, Hepatic: 60% increased absolute liver weight at ?10 mg/kg/day",20 mg/kg-day
same,LOAEL,"Mus musculus; developmental, duration: 21 days, F, Developmental: Decreased locomotion, muscle strength, and motor coordination in adult offspring",0.3 mg/kg-day
same,NOAEL,"Mus musculus; reproduction developmental, duration: 5 days, F, ICR, […] increased maternal relative liver weight",50 mg/kg-day
same,NOAEL,"Mus musculus; reproduction developmental, duration: 13 days, F, CD1, Endocrine: No alterations in serum T3 or T4 levels + Hepatic: 21% increase in absolute liver weight at ?3 mg/kg/day",6 mg/kg-day
same,LOAEL,Mus musculus; [4],20 mg/kg-day
same,NOAEL,Mus musculus; [4],15 mg/kg-day
same,NOAEL,"Mus musculus; reproduction developmental, duration: 17 days, F, CD1, Increase in absolute and relative liver weight and decreased serum triglycerides at ?5 mg/kg/day",20 mg/kg-day
same,NOAEL,"Mus musculus; short-term, duration: 14 days, M, CD1, Hepatic: ~70% increased absolute liver weight at ?5 mg/kg/day",10 mg/kg-day
same,LOAEL,Mus musculus; [5],10 mg/kg-day
same,NOAEL,Mus musculus; [5],5 mg/kg-day
same,NOAEL,"Mus musculus; short-term, duration: 21 days, M, CD1, Hepatic: Increased absolute liver weight at ?5 mg/kg/day",10 mg/kg-day
same,LOAEL,Mus musculus; [6],0.00166 mg/kg-day
same,NOAEL,Mus musculus; [6],0.000166 mg/kg-day
same,LOAEL,Mus musculus; [7],0.0833 mg/kg-day
same,NOAEL,Mus musculus; [7],0.0083 mg/kg-day and 0.0167 mg/kg-day
